Entries after “also recorded” stand apart in the source; their conditions may differ.
Tests used:
[1] = test system: C57BL/10 IL-10-deficient mice; test: IL-10-deficient mouse colitis model, disease activity index (DAI); format: in vivo; conditions: for effect on established colitis (disease activity index): n=12 per group
Description: The DAI was calculated by scoring 1 point for the appearance of each of the following: ruffled fur, occult fecal blood as determined on a Hemoccult Sensa® card (Smith Kline Diagnostics, San Jose, Calif.), rectal prolapse <1 mm, and soft stool. The mice were scored an additional point for diarrhea or severe rectal prolapse >1 mm. The mean with standard error bars of the DAI are plotted for pretreatment and then at the end of each week of treatment (n=12 per group).
The preferred, and widely used, model for testing is the IL-10-deficient (KO) mouse (on a C57BL/10 strain background). As described in the Examples, colonies of C57BL/10 IL-10 KO mice are bred and used. These mice consistently develop colitis at 10-12 weeks of age when transported from the ultra-barrier facility to conventional housing. These mice are used to test the effect of a candidate anti-angiogenic agent on pathogenesis and treatment of established disease.
Colonies of C57BL/10 IL-10-deficient mice were routinely bred at the Case Western Reserve University Animal Research Center for studies of early and late colitis. These mice consistently develop colitis at 10-12 weeks of age when transported from the ultra-barrier facility to conventional housing. These mice were used to test the effect of ATN 161 (Ac-PHSCN—NH2) on both the development and treatment of established disease.
ATN-161 had no effect on the development of colitis in this model when treatment was initiated at the time that the mice were moved to conventional housing. […] A scrambled peptide version of ATN-161 (ATN-163; Ac-HSPNC—NH2) was used as a control and had no effect on established colitis in this model. ATN-163 and vehicle controls were indistinguishable in these studies (data not shown).

[2] = test system: C57BL/10 IL-10-deficient mice; test: Histologic grading for colitis of colon at Week 6; format: in vivo, mouse; conditions: end of Week 6; ATN-161 versus ATN-163 treated group
Description: FIG. 2 is a graph summarizing the histologic grading for colitis at Week 6. Grading of intestinal inflammation was determined in a blinded fashion by three readers: no inflammation (0); modest numbers of infiltrating cells in the lamina propria (1); infiltration of mononuclear cells leading to separation of crypts and mild mucosal hyperplasia (2); massive infiltration with inflammatory cells accompanied by disrupted mucosal architecture, loss of goblet cells, and marked mucosal hyperplasia (3); all of the above plus crypt abscesses or ulceration (4).
Animals were euthanized at the end of Week 6 and the colon removed for histologic analysis.

IL-6 [3] = test: IL-6 in supernatants of cultured colon fragments from treated mice (ELISA); format: in vivo, mouse; conditions: 48 hours culture; versus ATN-163 treated controls
Description: (§1) FIGS. 3A and 3B are graphs showing that colon fragments from ATN-161 treated mice expressed lower levels of IL-12 and IL-6. Fragments of colon from mice treated with ATN-161 or ATN-163 were cultured in RPMI media +2% fetal bovine serum and 2.5% PSF (antibiotic-antimycotic). After 48 hours, supernatants were harvested and kept frozen at −80 C. FIG. 3A: IL-12(p40) was analyzed using an ELISA in which plates had been coated with the monoclonal antibody C15.6. FIG. 3B: IL-6 was analyzed using a commercially available ELISA kit specific for mouse IL-6 (R&D Systems, Minneapolis, Minn.).
(§2) Biopsies were also cultured in vitro and the supernatants analyzed for IL-6 and IL-12 expression as previously described (Spencer D M et al., 2002, Gastroenterology 122:94-105). IL-6 and IL-12 are inflammatory cytokines that have been correlated with the pathogenesis of colitis (Mahida Y R, 2000, Inflamm Bowel Dis 6:21-33).

IL-12(p40) = test: IL-12 in supernatants of cultured colon fragments from treated mice (ELISA); format: in vivo, mouse; conditions: 48 hours culture; versus ATN-163 treated controls
Description: as §1, §2

IL-6 [4] = test: IL-6 production in vitro by LPMC extracts and splenocytes; format: cell-based; conditions: lamina propria mononuclear cell (LPMC) extracts and splenocytes
Description: (§3) The effect of ATN-161 on IL-6 and IL-12 expression was also evaluated in vitro using lamina propria mononuclear cell (LPMC) extracts and splenocytes.

IL-12 = IL-12 production in vitro by LPMC extracts and splenocytes; format: cell-based; conditions: lamina propria mononuclear cell (LPMC) extracts and splenocytes
Description: as §3

[5] = test system: C57BL/10 IL-10-deficient mice; test: Microvessel density in colon sections by anti-CD31 immunostaining; format: in vivo, mouse; conditions: zinc fixed colon sections
Description: FIG. 4 is a graph showing an analysis of microvessel density using anti-CD31 immunostaining. Immunostaining was performed using the mouse CD31 specific mAb MEC 13.3 (Becton-Dickinson, San Diego, Calif.). Morphometric analysis was carried out using an international consensus for the quantification of angiogenesis (Vermeulen P B et al., Eur J Cancer 32A:2474-84; Eur J Cancer 38:1564-15). In particular stained colonic sections were scanned at low power (40×) to detect the most vascularized area, after which at least 5 microphotographs at 200× magnification were taken in the mucosa and in the submucosa. The number of vessels/field (mean vascular density) was performed using Image Pro Plus Software (Media Cybernetics, Silver Spring, Md.).
Microvessel density as a measure of angiogenesis was determined in zinc fixed colon sections.

[6] = test system: human colon cancer cells (HT29); conditions: HT29 do not express integrin α5β1; cited from earlier work
cell adhesion = conditions: cited from earlier work
tumor angiogenesis = conditions: cited from earlier work

Substance | effect on established colitis (disease activity index) ([1]; mice with established disease) | treatment time after which the reduction of colitis was observed ([1]; mice with established disease) | effect on the development of colitis ([1]; treatment initiated at the time the mice were moved to conventional housing) | histologic score [2] | IL-6 level in colon fragment organ culture (IL-6 [3]) | IL-12 level in colon fragment organ culture (IL-12(p40)) | effect on IL-6 production (IL-6 [4]) | effect on IL-12 production (IL-12) | reduction of microvessels versus ATN-163 treated controls [5] | in vivo growth of xenografted HT29 cells [6] | effect on cell adhesion (cell adhesion) | effect on efficacy of 5-fluorouracil (tumor angiogenesis; combination with 5-fluorouracil) | effect on tumor angiogenesis (tumor angiogenesis; in vivo)
Ac-HSPNC—NH2 (Ac-HSPNC-NH2) [ATN-163, reference compound] | no effect | – | – | – | – | – | – | – | – | – | – | – | –
Ac-PHSCN—NH2 (Ac-PHSCN-NH2) [ATN-161] | consistently reduced colitis; also recorded: reduces established colitis | approximately four | no effect | significantly lower | significantly lower levels | significantly lower levels | no effect | no effect | approximately 40% | significantly reduced | does not affect cell adhesion | enhance the efficacy | inhibited tumor angiogenesis

Source: US20090312243A1, “TREATMENT OF INFLAMMATORY BOWEL DISEASE (IBD) WITH ANTI-ANGIOGENIC COMPOUNDS” (priority 2005, published 2009)
